Earlier results as cited in paper PMC6974622, “DeepMalaria: Artificial Intelligence Driven Discovery of Potent Antiplasmodials” (Frontiers in Pharmacology, 2020).
Values joined by “and” are separate entries in the source; they are usually repeats but may differ in a detail not shown here. Identical values can stand only once. Like-named read-outs stand apart in the source and are kept apart here.

Test system: 3D7
Design: unit not given here
Conditions: cited from earlier work
[1] = repurposing dataset, 179 approved drugs, ref https://www.nature.com/articles/nchembio806

In the case of CC[n+]1c(-c2ccccc2)c2cc(N)ccc2c2ccc(N)cc21 [Homidium bromide], the 3D7 [1] is given as 98.9.

For CCN(CCO)CCCC(C)Nc1ccnc2cc(Cl)ccc12 (stereo not shown) [Hydroxychloroquine], the 3D7 [1] is given as 97.7.

In the case of CC(=O)[C@]1(O)Cc2c(O)c3c(c(O)c2[C@@H](O[C@H]2C[C@H](N)[C@H](O)[C@H](C)O2)C1)C(=O)c1ccccc1C3=O [Idarubicin], the 3D7 [1] is listed as 98.9.

In the case of CC(C(O)c1ccc(O)cc1)N1CCC(Cc2ccccc2)CC1 (stereo not shown) [Ifenprodil], the 3D7 [1] is listed as 82.3.

In the case of CC[C@@H](C(=O)[C@@H](C)[C@@H](O)[C@H](C)CCc1ccc(C)c(O)c1C(=O)O)[C@H]1O[C@](CC)([C@H]2CC[C@](O)(CC)[C@H](C)O2)C[C@@H]1C [Lasalocid A], the 3D7 [1] is given as 98.2.

In the case of CN(C)C(=O)C(CCN1CCC(O)(c2ccc(Cl)cc2)CC1)(c1ccccc1)c1ccccc1 [Loperamide], the 3D7 [1] is given as 97.7.

In the case of Cc1cccc(C)c1OCC(=O)N[C@@H](Cc1ccccc1)[C@@H](O)C[C@H](Cc1ccccc1)NC(=O)[C@H](C(C)C)N1CCCNC1=O [Lopinavir], the 3D7 [1] is listed as 84.9.

For CN(C)c1ccc(C(=C2C=CC(=[N+](C)C)C=C2)c2ccccc2)cc1 [Malachite green], the 3D7 is given as 86.9.

In the case of [Cl][Mn][Cl] [Manganese chloride], the 3D7 [1] is listed as 94.1.

In the case of CNCCCC12CCC(c3ccccc31)c1ccccc12 [Maprotiline], the 3D7 is listed as 62.7.

In the case of CN1CCc2c(c3ccccc3n2Cc2ccccc2)C1 [Mebhydrolin], the 3D7 [1] is given as 57.1.

In the case of OC(c1cc(C(F)(F)F)nc2c(C(F)(F)F)cccc12)C1CCCCN1 (stereo not shown) [Mefloquine], the 3D7 [1] is given as 97.7.

For N[C@@H](Cc1ccc(N(CCCl)CCCl)cc1)C(=O)O [Melphalan], the 3D7 [1] is given as 59.5.

For S=c1[nH]cnc2nc[nH]c12 [Mercaptopurine], the 3D7 [1] is listed as 91.8.

In the case of CN1C[C@H](CNC(=O)OCc2ccccc2)C[C@@H]2c3cccc4c3c(cn4C)C[C@H]21 [Metergoline], the 3D7 [1] is listed as 85.9.

For CN(Cc1cnc2nc(N)nc(N)c2n1)c1ccc(C(=O)N[C@@H](CCC(=O)O)C(=O)O)cc1 [Methotrexate], the 3D7 [1] is listed as 98.4.

For Cc1cc(C(C)(C)CC(C)(C)C)ccc1OCCOCC[N+](C)(C)Cc1ccccc1.[Cl-] [Methylbenzethonium chloride], the 3D7 [1] is given as 97.7.

For CN(C)c1ccc2nc3ccc(=[N+](C)C)cc-3sc2c1 [Methylene blue], the 3D7 [1] is listed as 98.

For COCC(=O)O[C@]1(CCN(C)CCCc2nc3ccccc3[nH]2)CCc2cc(F)ccc2[C@@H]1C(C)C [Mibefradil], the 3D7 [1] is listed as 92.

For CCCCCCCCCCCCCCCCOP(=O)([O-])OCC[N+](C)(C)C [Miltefosine], the 3D7 [1] is given as 99.5.

In the case of O=C1c2c(O)ccc(O)c2C(=O)c2c(NCCNCCO)ccc(NCCNCCO)c21 [Mitoxantrone], the 3D7 [1] is given as 99.2 and 98.4.

In the case of COc1c(C)c2c(c(O)c1C/C=C(\C)CCC(=O)O)C(=O)OC2 [Mycophenolic acid], the 3D7 [1] is given as 92.7.

For COC(=O)C1=C(C)NC(C)=C(C(=O)OCCCN2CCC(c3ccccc3)(c3ccccc3)CC2)[C@H]1c1cccc([N+](=O)[O-])c1 [Niguldipine], the 3D7 is given as 89.3.

In the case of O=[N+]([O-])c1ccc(O)c2ncccc12 [Nitroxoline], the 3D7 [1] is given as 97.2.

In the case of COC(=O)[C@@H]1c2cc3c(c(O)c2[C@@H](O[C@@H]2O[C@@H](C)[C@H](OC)[C@@](C)(OC)[C@H]2OC)C[C@]1(C)O)C(=O)c1c(O)cc2c(c1C3=O)O[C@@H]1O[C@@]2(C)[C@H](O)[C@@H](N(C)C)[C@@H]1O [Nogalamycin], the 3D7 [1] is given as 85.3.

In the case of O=C1[O][Pt]2([NH][C@@H]3CCCC[C@H]3[NH]2)[O]C1=O [Oxaliplatin], the 3D7 [1] is listed as 55.4.

In the case of CC(=O)O[C@H]1C(=O)[C@@]2(C)[C@H]([C@H](OC(=O)c3ccccc3)[C@]3(O)C[C@H](OC(=O)[C@H](O)[C@@H](NC(=O)c4ccccc4)c4ccccc4)C(C)=C1C3(C)C)[C@]1(OC(C)=O)CO[C@@H]1C[C@@H]2O [Paclitaxel], the 3D7 [1] is given as 84.5.

In the case of CC(=O)O[C@H]1C[C@@H]2CC[C@@H]3[C@H](CC[C@@]4(C)[C@H]3C[C@H]([N+]3(C)CCCCC3)[C@@H]4OC(C)=O)[C@@]2(C)C[C@@H]1[N+]1(C)CCCCC1 [Pancuronium bromide], the 3D7 [1] is given as 52.6.

In the case of N=C1C=CC(=C(c2ccc(N)cc2)c2ccc(N)cc2)C=C1 [Pararosaniline pamoate], the 3D7 [1] is given as 97.3.

In the case of Fc1ccc([C@@H]2CCNC[C@H]2COc2ccc3c(c2)OCO3)cc1 [Paroxetine], the 3D7 [1] is listed as 85.4.

For N=C(N)c1ccc(OCCCCCOc2ccc(C(=N)N)cc2)cc1 [Pentamidine isethionate], the 3D7 [1] is given as 99.1.

In the case of C1CCC(C(CC2CCCCN2)C2CCCCC2)CC1.O=C(O)/C=C\C(=O)O (stereo not shown) [Perhexilline maleate], the 3D7 [1] is given as 97.5.

In the case of OCCN1CCN(CCCN2c3ccccc3Sc3ccc(Cl)cc32)CC1 [Perphenazine], the 3D7 [1] is listed as 85.6.

In the case of CN1CCC(=C2c3ccccc3Sc3ccccc32)CC1 [Pimethixene], the 3D7 [1] is given as 75.5.

In the case of CC(=O)c1ccc2c(c1)N(CCCN1CCC(CCO)CC1)c1ccccc1S2 [Piperacetazine], the 3D7 [1] is given as 88.5.

For O.O.O.O=C([O-])[C@H]([O-])[C@@H]([O-])C(=O)[O-].O=C([O-])[C@H]([O-])[C@@H]([O-])C(=O)[O-].[K+].[K+].[Sb+3].[Sb+3] [Potassium antimonyl tartrate], the 3D7 [1] is given as 95.5.

In the case of COc1cc(NC(C)CCCN)c2ncccc2c1 (stereo not shown) [Primaquine], the 3D7 [1] is listed as 99.1.

For CCCC(C(=O)OCCN(CC)CC)(c1ccccc1)c1ccccc1 [Proadifen], the 3D7 [1] is listed as 85.9.

For CN1CCN(CCCN2c3ccccc3Sc3ccc(Cl)cc32)CC1 [Prochlorperazine edisylate], the 3D7 is given as 73.3.

For Nc1ccc2cc3ccc(N)cc3nc2c1 [Proflavine], the 3D7 [1] is listed as 96.2.

For CC(C)NCC(O)c1ccc2ccccc2c1 (stereo not shown) [Pronetalol], the 3D7 [1] is given as 95.3.

In the case of CCC(=O)c1ccc2c(c1)N(CC(C)N(C)C)c1ccccc1S2.O=C(O)/C=C\C(=O)O (stereo not shown) [Propiomazine maleate], the 3D7 [1] is listed as 77.

In the case of COc1ccc(C[C@H](N)C(=O)N[C@H]2[C@@H](O)[C@H](n3cnc4c(N(C)C)ncnc43)O[C@@H]2CO)cc1 [Puromycin], the 3D7 [1] is given as 98.9.

For CCc1nc(N)nc(N)c1-c1ccc(Cl)cc1 [Pyrimethamine], the 3D7 [1] is listed as 96.5.

In the case of CCN(CC)CCCC(C)Nc1c2ccc(Cl)cc2nc2ccc(OC)cc12 (stereo not shown) [Quinacrine], the 3D7 [1] is listed as 99.2.

In the case of C=C[C@H]1C[N@@]2CC[C@H]1C[C@@H]2[C@@H](O)c1ccnc2ccc(OC)cc12 [Quinidine], the 3D7 [1] is listed as 88.5.

In the case of C=C[C@H]1CN2CC[C@H]1C[C@H]2[C@H](OC(=O)OCC)c1ccnc2ccc(OC)cc12 [Quinine ethyl carbonate], the 3D7 [1] is given as 94.5.

In the case of C=C[C@H]1C[N@@]2CC[C@H]1C[C@H]2[C@H](O)c1ccnc2ccc(OC)cc12 [Quinine], the 3D7 [1] is given as 98.3.

For O=C(c1ccc(OCCN2CCCCC2)cc1)c1c(-c2ccc(O)cc2)sc2cc(O)ccc12 [Raloxifene], the 3D7 [1] is listed as 97.1.

In the case of CO[C@H]1C[C@@H]2CC[C@@H](C)[C@@](O)(O2)C(=O)C(=O)N2CCCC[C@H]2C(=O)O[C@H]([C@H](C)C[C@@H]2CC[C@@H](O)[C@H](OC)C2)CC(=O)[C@H](C)/C=C(\C)[C@@H](O)[C@@H](OC)C(=O)[C@H](C)C[C@H](C)/C=C/C=C/C=C/1C [Rapamycin], the 3D7 [1] is given as 51.4.

In the case of Cc1nc2n(c(=O)c1CCN1CCC(c3noc4cc(F)ccc34)CC1)CCCC2 [Risperidone], the 3D7 [1] is given as 67.5.

For CC(C)c1nc(CN(C)C(=O)N[C@H](C(=O)N[C@@H](Cc2ccccc2)C[C@H](O)[C@H](Cc2ccccc2)NC(=O)OCc2cncs2)C(C)C)cs1 [Ritonavir], the 3D7 [1] is given as 84.9.
